Test results from paper PMC12736008, “New Dimethylpyridine-3-Carboxamide Derivatives as MMP-13 Inhibitors with Anticancer Activity” (Molecules, 2025).

What was measured:
[1] = system: HT-29 (colorectal adenocarcinoma) cells; assay: MTT assay, HT-29; type: cell-based, human; settings: for reduction in cancer cell viability / anticancer potential (HT-29): MTT, 24 h, 0.004 mM to 0.5 mM
Text: (§1) As mentioned earlier, MMP-13 is overexpressed and functionally significant in various cancers, including melanoma and colorectal carcinoma. For instance, high MMP-13 levels have been correlated with metastasis and poor survival in melanoma patients. In colorectal cancer, elevated MMP-13 activity has been observed in tumors compared to normal mucosa, and its expression is associated with a worse prognosis. Based on computational studies, four out of the eleven designed compounds showing the most promising predicted activity against MMP-13 were selected for biological evaluation. For the MTT assay, NHDF cells were used as the healthy reference cell line, while A375 (melanoma) and HT-29 (colorectal adenocarcinoma cancer) cell lines were chosen as cancer models.
(§2) Experiments were conducted using two cancer cell lines and, as a control, a normal human dermal fibroblasts (NHDF; ATCC PCS-201-012). The A375 cell line (human melanoma, ATCC CRL-1619), and HT-29 cell line (human colorectal adenocarcinoma, ATCC HTB-38) were cultured in DMEM (Dulbecco’s Modified Eagle Medium, Institute of Immunology and Experimental Therapy (IITD), Wrocław, Poland) supplemented with 1% antibiotics (10 U/mL penicillin and 10 µg/mL streptomycin, Sigma-Aldrich, St Louis, MO, USA), 1% glutamine (Sigma-Aldrich, St Louis, MO, USA) and 10% fetal bovine serum (FBS, Gibco, Grand Island, NY, USA). For NHDF cultures, α-MEM (α-Minimum Essentials Medium, Institute of Immunology and Experimental Therapy (IITD), Poland) was used with the same supplement combination as for the cancer cell lines. All cells were maintained in a humidified incubator (INCO 105, Memmert GmbH, Schwabach, Germany) at 37 °C with 5% CO2 and 95% humidity. Cells were passaged routinely by trypsinization (twice a week). For the MTT (3-(4,5-simethylthiazol-2,5-diphenyltetrazolinum bromide), Sigma, St. Louis, MO, USA) assay, cells were used after 2–4 passages, when they reached approximately 80% confluence.
(§3) All tested compounds were dissolved in DMSO to obtain stock solutions with a final concentration of 50 mM (3a, 3b, 3e), 40 mM (3f, 3g, 3i, 3j), and 35 mM (3h, 3k). […] In the next step, 10 µL of each stock solution was added to 990 µL of supplemented medium.
(§4) The MTT assay was performed in 96-well plates, with a seeding density of 1 × 10^4 cells per well. All cell lines were incubated for 24 h in their respective media: α-MEM for (NHDF cells) and DMEM for (A375 and HT-29) cells. After incubation, the medium was removed and replaced with fresh medium containing the tested compounds at concentrations ranging from 0.004 mM to 0.5 mM. […] Absorbance was measured spectrophotometrically at a wavelength of 570 nm using a BioTek SYNERGY H1 microplate reader (Agilent, Santa Clara, CA, USA).

[2] = molecular target: T1, human serum albumin (HSA) (Homo sapiens, UniProt P02768); assay: Fluorescence quenching titration of human serum albumin; type: binding; settings: for ΔG^0 / ΔH^0 / ΔS^0: HSA complex formation; for ΔG^0: one value for 297-308 K; for ΔH^0 / ΔS^0: van't Hoff; for KSV·10^4: PBS pH 7.4
T1 construct: purchased Sigma-Aldrich
T1 sequence (P02768 25-609): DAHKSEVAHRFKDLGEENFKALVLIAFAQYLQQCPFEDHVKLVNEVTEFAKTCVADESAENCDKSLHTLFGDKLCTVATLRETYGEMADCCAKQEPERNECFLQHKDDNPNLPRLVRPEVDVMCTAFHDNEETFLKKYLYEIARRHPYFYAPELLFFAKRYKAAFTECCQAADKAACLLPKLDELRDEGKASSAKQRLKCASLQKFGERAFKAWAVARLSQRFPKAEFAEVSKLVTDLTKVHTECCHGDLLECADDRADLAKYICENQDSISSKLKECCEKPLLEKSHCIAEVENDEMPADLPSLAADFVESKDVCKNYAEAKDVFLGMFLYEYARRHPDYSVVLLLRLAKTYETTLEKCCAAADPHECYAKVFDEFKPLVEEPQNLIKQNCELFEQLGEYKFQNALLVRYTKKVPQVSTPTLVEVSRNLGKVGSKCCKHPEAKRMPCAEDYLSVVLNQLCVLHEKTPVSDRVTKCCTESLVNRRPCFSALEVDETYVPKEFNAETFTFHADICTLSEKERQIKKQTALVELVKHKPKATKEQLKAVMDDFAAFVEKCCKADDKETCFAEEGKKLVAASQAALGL
Protocol: In the human albumin, the amino acid residue Trp214 in subdomain IIA is of particular significance in structural studies. Subdomain IIA is responsible for binding many drugs and endogenous compounds [37]. To investigate the interactions between HSA and the tested compounds, fluorescence spectroscopy was conducted. […] The Stern–Volmer constant with inner filter correction was applied, based on changes in absorbance and in the fluorescence intensity of excited Trp214 residues located in the protein binding pocket:(1) F0/Fcorr=1+kqτQ=1+KSV[Q] (2) Fcorr=Fobs10^(Aex+Aem)/2 where F0 is maximum fluorescence intensities protein without a quencher, Fcorr is the corrected florescence intensities, kq is the quenching rate constant of the molecules, τ is the average lifetime of the molecule (for biomolecules τ = 10^−8 s), [Q] is the concentration of quencher, Ksv is the Stern-Volmer constant, Fobs is the steady-state fluorescence intensity at the maximum wavelength with the quencher, Aex and Aem are the absorbance at excitation and emission wavelengths, respectively. The quenching rate constants (kq) are higher than 2 × 10^10 dm^3 mol^−1 s^−1; therefore, the quenching mechanism is static and supports complex formation.
The binding parameters were evaluated by a double logarithm regression curve by Equation (3):(3) logF0−F/F=logKb[…] where F0 is the maximum fluorescence intensity of a protein without a quencher, F is the maximum fluorescence intensity of the protein after a quencher addition, Kb is the binding constant, [Q] is the molar concentration of the quencher, and n is the binding stoichiometry.
The compounds studied can be arranged in accordance with the value of Kb, the strength of their interaction with HSA. In this ranking, 3d is the highest ranked, followed by 3c, 3b, and 3g in descending order of compatibility. Then, using Equations (4), and van’t Hoff function (5), the thermodynamic parameters of complex formation were determined and collected in Table 5, and Figure 10:(4) logKb=−ΔH^0/RT+[…] (5) ΔG^0=ΔH^0−TΔS^0=−RTlnKb where R is the gas constant (8.314 J mol^−1 K^−1), T is temperature, Kb is the binding constant, ΔH^0 is enthalpy, ΔS^0 is entropy, and ΔG^0 is free energy change.
To perform the UV-Vis and fluorometric titration measurements, all compounds were dissolved in dimethyl sulfoxide (DMSO) at a concentration of 1⸱10^−3 mol/dm^3. A 0.01 mol/dm^3 phosphate-buffered saline (PBS) solution with a pH of 7.4 (Sigma-Aldrich Chemie GmbH, St. Louis, MO, USA) was used to prepare a 1 × 10^−6 mol/dm^3 solution of human serum albumin (HSA) (Sigma-Aldrich Chemie GmbH, St. Louis, MO, USA). The fluorescence study was performed on a Cary Eclipse 500 spectrophotometer (Agilent, Santa Clara, CA, USA). The fluorometric spectra were recorded in a quartz cuvette with a 10 mm path length over an emission range of 280–400 nm, with an excitation wavelength of 280 nm and a PMT voltage of 560 V. The UV-Vis spectra were recorded on a Jasco V-750 spectrophotometer (Jasco, Tokyo, Japan) with the following parameters: a wavelength range of 190–400 nm, a data interval of 0.1 nm, a scan speed of 400 nm/min, and automatic baseline correction. Quartz cuvettes with an optical path length of 10 mm were used. […] The titrations of the protein solution with the studied compounds were performed in 0.5 molar increments, from 0.0 to 2.0 followed by 1.0 increments up to a final molar ratio of 11.0.

NHDF cells = assay: MTT assay, NHDF; type: cell-based, human; settings: 24 h, 0.004 mM to 0.5 mM
Text: as §1, §2, §3, §4

Compound	selectivity ratio HT-29:NHDF ([1]; at a concentration of 0.5 mM)	ΔG^0 [2]	ΔH^0 [2]	ΔS^0 [2]	kq·10^12 ([2]; T 297 K)	n (binding stoichiometry) ([2]; T 297 K)	KSV·10^4 ([2]; T 297 K)	kq·10^12 ([2]; T 303 K)	n (binding stoichiometry) ([2]; T 303 K)	KSV·10^4 ([2]; T 303 K)	kq·10^12 ([2]; T 308 K)	n (binding stoichiometry) ([2]; T 308 K)	KSV·10^4 ([2]; T 308 K)	toxicity toward healthy NHDF cells (NHDF cells)	reduction in cancer cell viability / anticancer potential (HT-29) [1]
Cc1cc(C)c(C(=O)NCC(=O)NCc2ccc(Oc3ccccc3)cc2)c(S)n1 [Compound 3b, 4,6-dimethyl-N-{2-[(4-phenoxybenzyl)amino]-2-oxoethyl}-2-sulfanylpyridine-3-carboxamide]	0.43	-3.176 kcal/mol	-96.119 kcal/mol	−1282.70 J·mol^−1·K^−1	1.21 10^12 dm^3·mol^−1·s^−1	0.89	1.21 10^4 dm^3·mol^−1	1.06 10^12 dm^3·mol^−1·s^−1	0.60	1.06 10^4 dm^3·mol^−1	0.86 10^12 dm^3·mol^−1·s^−1	0.44	0.86 10^4 dm^3·mol^−1	lowest toxicity toward healthy cells	–
Cc1cc(C)c(C(=O)NCC(=O)NCc2ccc(Cl)cc2)c(S)n1 [Compound 3c, N-{2-[(4-chlorobenzyl)amino]-2-oxoethyl}-4,6-dimethyl-2-sulfanylpyridine-3-carboxamide]	–	-4.319 kcal/mol	-45.696 kcal/mol	−571.09 J·mol^−1·K^−1	2.69 10^12 dm^3·mol^−1·s^−1	0.84	2.69 10^4 dm^3·mol^−1	2.34 10^12 dm^3·mol^−1·s^−1	0.74	2.34 10^4 dm^3·mol^−1	2.07 10^12 dm^3·mol^−1·s^−1	0.65	2.07 10^4 dm^3·mol^−1	highest toxicity toward healthy NHDF	strongest reduction in cancer cell viability
Cc1cc(C)c(C(=O)NCC(=O)NCc2ccccc2Cl)c(S)n1 [Compound 3d, N-{2-[(2-chlorobenzyl)amino]-2-oxoethyl}-4,6-dimethyl-2-sulfanylpyridine-3-carboxamide]	–	-4.156 kcal/mol	-45.471 kcal/mol	−570.21 J·mol^−1·K^−1	2.51 10^12 dm^3·mol^−1·s^−1	0.82	2.51 10^4 dm^3·mol^−1	2.13 10^12 dm^3·mol^−1·s^−1	0.73	2.13 10^4 dm^3·mol^−1	1.88 10^12 dm^3·mol^−1·s^−1	0.63	1.88 10^4 dm^3·mol^−1	highest toxicity toward healthy NHDF	strongest reduction in cancer cell viability
Cc1cc(C)c(C(=O)NCC(=O)NCc2ccccc2)c(S)n1 [Compound 3g, 4,6-dimethyl-N-[2-(benzylamino)-2-oxoethyl]-2-sulfanylpyridine-3-carboxamide]	–	-2.12 kcal/mol	-44.077 kcal/mol	−579.14 J·mol^−1·K^−1	0.87 10^12 dm^3·mol^−1·s^−1	0.60	0.87 10^4 dm^3·mol^−1	0.72 10^12 dm^3·mol^−1·s^−1	0.54	0.72 10^4 dm^3·mol^−1	0.63 10^12 dm^3·mol^−1·s^−1	0.42	0.63 10^4 dm^3·mol^−1	–	only moderate anticancer potential
